# From patent US12551434B2, “Zwitterionic polymer particle compositions and related methods” (WAYNE STATE UNIVERSITY, priority 2020, dated 2026)
# Where two headings read alike, the source gives them in different places.
# How the values were obtained:
# Caco-2 monolayers = test: Transepithelial electrical resistance (TEER) study
# Method: Transepithelial electrical resistance (TEER) study. Caco-2 cells were suspended in EMEM supplemented with 20% FBS, and seeded at a density of 2×10^5 cells per well on Corning® Transwell polyester membrane cell culture inserts and incubated for 96 h. The TEER was monitored to confirm proper barrier formation and only monolayers with initial TEER values of at least 300Ω×cm^2 were used for TEER or molecular permeability experiments. Prior to the study, the medium in the apical and basolateral chambers was replaced with prewarmed EMEM. After equilibration at 37° C. for 30 min, the apical solution was replaced with Sodium decanoate, polysorbate 80 or DSPE-PCB (0.2% w/v) in EMEM. After incubation for 4 h, the TEER value of each insert was measured with EVOM2
# Epithelial volt/ohmmeter to explore the integrity of the tight junction.
# [1] = format: in vitro ADME, porcine
# Method: Tracking nanoparticle diffusion in mucus. Nanoparticle diffusion behavior in mucus was studied by modifying methods as described in Lai, S. K. et al. P Natl Acad Sci USA 104, 1482-1487 (2007) and Olmsted, S. S. et al. Biophys J 81, 1930-1937 (2001). Mucus was reconstituted by dissolving porcine stomach mucin in phosphate buffered saline (PBS) at 30 mg/ml. Nanogels were added into 100 μl mucus to reach a final concentration of 3% vol/vol (final particle concentration, 8.25×10^−7 wt/vol) and incubated for 1 h on a Nunc™ glass bottom dish (0.17 mm thickness for the inside bottom glass) before observation. Movies were captured with 64×oil-immersion objective in a spinning disc confocal microscope (Yokogawa CSU-X1M 5000 microlens, Zeiss LSM 800). For each nanogel sample, trajectories of n=50 particles were analyzed, and three samples were examined for each type of nanogel. MSD was calculated with the equation of MSD=<|r(t)-r(0)|^2> at a temporal resolution of 200 ms for 20 s.
# healthy mice = test: Long-term safety of repeated consecutive dosing; settings: for serum endotoxin and pro-inflammatory cytokines (TNF-α, IFN-γ, IL-6): healthy mice, oral gavage twice daily 14 days, day 0 and 14, before and 1 h after dose
# Method: Long-term safety of repeated consecutive dosing. […] At day 14, the lactulose/mannitol experiment was conducted to examine potential tight junction opening through the lactulose-mannitol intestinal permeability test. In addition, the ileum tissue was collected and fixed in 10% zinc fixative (BD Pharmingen™), dehydrated in ethanol, and embedded in paraffin. Five-μm cross-sections of intestine tissue were deparaffinized, rehydrated, and stained with Hematoxylin and Eosin. Histological morphology was examined using an EVOS XL Core Cell Imaging microscope. In addition, healthy mice received the same oral administered with DSPE-PCB micelle, saline, Polysorbate 80, or sodium decanoate twice daily for 14 consecutive days (the same dose as above). On day 0 and 14, before and 1 h after the oral administration, blood serum was collected and the endotoxin and pro-inflammatory cytokines (IFN-γ, IL-1β, ILL-4, IL-6, IL-12, TNF-α) were measured with Pierce LAL Chromogenic Endotoxin Quantitation Kit and the mouse magnetic Luminex® assays (Lot No: L131929).
# [2] = tested on: intestine epithelial tight junctions; settings: mouse, in vivo
# Method: (§1) 1 h post ileum injection of the formulations, mice were euthanized and small parts of ileum (5×5 mm) near to the injection site were collected and washed with PBS. The samples were continuously fixed in 2.5% glutaraldehyde+2.5% paraformaldehyde in 0.1M PBS buffer and 4% osmium tetroxide solution and transferred into Beem® embed capsule with micro-embed resin added to embed samples. The obtained blocks were further sectioned with ultra-microtomy to obtain sections with thickness of ˜70 nm. These sections were retrieved via copper grid and stained with 1% lead citrate and 4% uranyl acetate separately, and then visualized under a JEM-100CX II electron microscope operated at 100 kV.
# Caco-2 cells [3] = tested on: Caco-2 cells
# Caco-2 cells [4] = test: In vitro cytotoxicity (MTT) and live/dead assay; format: cell-based, human; settings: 0.01-1 mg/ml, 24 h
# Method: In vitro cytotoxicity and live/dead assay. In vitro cytotoxicity was evaluated using MTT assay with Caco-2 cells. Caco-2 cells were seeded on 96-well plates at a density of 2×10^4 cells per well in Eagle's Minimum Essential Medium (EMEM) with 20% FBS and cultured in 5% CO2 atmosphere at 37° C. for 24 h. Then the cells were washed twice with HBSS and incubated with 100 μl of DSPE-PCB micelle or Polysorbate 80 solutions in EMEM with concentrations of 0.01, 0.1, and 1.0 mg/ml, respectively. After 24 h of incubation at 37° C., the DSPE-PCB micelle and Polysorbate 80 solution were replaced with 100 μL of MTT solution (0.5 mg/ml in HBSS), and the cells were incubated for an additional 4 h at 37° C. Subsequently, the supernatant was carefully removed and 150 μL of dimethyl sulfoxide (DMSO) was added to each well. The absorbance of the resultant solutions was measured at 570 nm using a microplate reader (Bio-Rad, USA). Untreated cells were used as negative control for 100% cell viability. Cell viability was expressed as percentage of absorbance relative to the control. Live/dead assay was conducted by staining the cells with 100 μL of PBS buffer containing 2 μM Calcein and 4 μM ethidiumhomodimer-1 (Live/Dead viability/cytotoxicity kit, Invitrogen, CA, USA). The cells were incubated at room temperature for 30 minutes and observed by the EVOS FL fluorescence microscope (AMG).
# [5] = tested on: intestinal tight junctions; test: Lactulose-mannitol intestinal permeability test; format: in vivo; settings: healthy and diabetic mice, 1 h after ileum co-injection, vs control without micelles
# Method: The lactulose-mannitol intestinal permeability test. Healthy and diabetic mice remained fasted for 8 h and were restricted from water for 3 h before the experiment. Then mice received 500 μL water through oral gavage. 1 h later, the lactulose, mannitol, and free micelles were co-administered via ileum injection at the dose of 40/8/5.2 mg/ml (50 μL) and the wound is closed with wound clips. 1 h post ileum injection, the urine was collected, and the ileum tissue surrounding the injection site was collected for TEM imaging. The concentrations of lactulose and mannitol were measured using LC-MS-MS, with a mobile phase of 10 mM ammonium formate in water and acetonitrile (90:10), and an Agilent advanced bio glucan mapping column (2.1×100 mm×2.7 μm) (precursor and product: mannitol 180.7→89; lactulose 341.2→160.8).
# [6] = tested on: Caco-2 cells (PAT1 overexpression); test: Cell uptake of micelle/polystyrene nanoparticles (confocal, flow cytometry); format: cell-based, human
# Method: Cell uptake of polystyrene nanoparticles for Caco-2 and 3T3 cells. Caco-2 human colon epithelial cells and NIH 3T3 mouse embryonic fibroblast cells were used as received from the American Type Culture Collection without further authentication, and were cultured in Dulbecco's Modified Eagle's Medium (DMEM) and Eagle's Minimum Essential Medium (EMEM) at 37° C. in a 5% CO2 environment respectively. […] Cells were seeded in a 12-well plate at a density of 1×10^5 cells per well overnight, washed twice with pre-wared PBS, and incubated with DSPE-PCB/polystyrene nanoparticles in culture medium at 37° C. for 2 h. […] Cellular uptake of DSPE-PCB/polystyrene nanoparticles in different groups was examined by an Zeiss LSM 780 confocal laser scanning microscope. The Z-stack method was used for three-dimensional visualization, where the section thickness was 2.5 μm, the step interval was 2 m, and the total z-stack length was 44 μm (23 slices). Fluorescent signal was quantified by using the image J software. Cellular uptake was also quantitively measured with flow cytometry (BD FACSAria II flow cytometer) and analyzed with FlowJo X software.
# [7] = tested on: streptozotocin (STZ)-induced C57BL/6 diabetic mice; test: Blood glucose lowering on STZ-induced diabetic mice (ileum injection or oral gavage); format: in vivo; settings: ileum injection, 20 IU/Kg, compared with saline baseline
# Method: Animals and diabetes induction. All animal experiments were performed according to the National Institute of Health (NIH) guidelines for animal research under a protocol approved by the Institutional Animal Care and Use Committee (IACUC) at Wayne State University. To establish streptozotocin (STZ)-induced diabetic mice model, healthy mice (C57BL/6J, male, 6-8 weeks of age, Jackson Lab) received a daily intraperitoneal injection of 5 mg/ml STZ at 50 mg/kg body weight for 5 consecutive days. 17 days after the first injection, body weight and blood glucose were measured to confirm the diabetic status. Diabetic mice with blood glucose above 300 mg/dL were selected for further in vivo test. To establish STZ-rat model, healthy rats (Sprague Dawley rat, male, ˜180 g, Charles River) received a one-time intraperitoneal injection of 65 mg/kg STZ. 10 days after injection, diabetic rats with blood glucose above 300 mg/dL were selected for further in vivo test.
# Ileum injection surgery. Mice received buprenorphine SR subcutaneously and surgical anesthesia was managed by isoflurane inhalation. The surgical site (abdomen) was shaved and prepped with three alternating scrubs of betadine and alcohol. On prepped animal, a single incision (1.5-2 cm) was made through abdomen skin. About 0.5-1 cm ileum of intestine was pulled-out from the enterocoelia. […]
# [8] = tested on: intestine epithelial tight junctions; test: TEM imaging of tight junctions after ileum injection; settings: 1 h post ileum injection
# Method: as §1
# Caco-2 cells [9] = test: LDH leakage assay; settings: % of untreated cell negative control; 1% with sonication, complete lysis, positive control
compound,measurement,setting,value
"DSPE lipid conjugated with poly(N-methacryloyloxyethyl-N,N-dimethylammonium-α-N-methylcarboxybetaine) [DSPE-PCB micelles]",TEER / permeability of Caco-2 cell layers,Caco-2 monolayers; Caco-2,did not increase the permeability of Caco-2 cell layers
same,MSD relative to Polysorbate 80 micelles,[1],~12 times
same,small intestine histology (H&E) on day 14,"healthy mice; mouse, in vivo, po",no significant structural damage
same,"tight junction opening, urine lactulose/mannitol test at day 14","healthy mice; mouse, in vivo, po",no significant tight junction opening
same,tight junction morphology (TEM),[2],intact tight junctions
Polysorbate 80,TEER / permeability of Caco-2 cell layers,Caco-2 monolayers; Caco-2,drastically decreased TEER values
same,lactate dehydrogenase (LDH) release,Caco-2 cells [3],no significant lactate dehydrogenase (LDH) release
same,"cytotoxicity (cell viability, MTT, live/dead staining)",Caco-2 cells [4],no significant cytotoxicity
same,excretion ratio of lactulose to mannitol (L/M) in urine,[5],drastically higher L/M ratio values
same,"serum endotoxin and pro-inflammatory cytokines (TNF-α, IFN-γ, IL-6)",healthy mice,observable increase
same,cellular uptake,"[6]; Caco-2 cells compared with 3T3 cells, 2 h, 37 C",no observable polysorbate 80 uptake
same,tight junction morphology (TEM),[2],severe tight junction opening
Native insulin: native insulin not encapsulated by any carrier,glucose-lowering effect,[7],hardly achieved any glucose-lowering effect
N[C@@H](Cc1c[nH]c2ccccc12)C(=O)O [L-tryptophan],inhibition of Caco-2 uptake of DSPE-PCB micelle particles by PAT1 substrates,"[6]; pretreatment 5 mg/ml, 1 h",significantly inhibited
CCCCCCCCCC(=O)[O-].[Na+] [sodium decanoate],TEER / permeability of Caco-2 cell layers,"Caco-2 monolayers; 0.2% w/v, 4 hours",drastically decreased TEER values
same,tight junction morphology (TEM),[8],even more severe tight junction opening
same,excretion ratio of lactulose to mannitol (L/M) in urine,[5],drastically higher L/M ratio values
same,"serum endotoxin and pro-inflammatory cytokines (TNF-α, IFN-γ, IL-6)",healthy mice,observable increase
Triton X-100,LDH leakage level,Caco-2 cells [9],240%
